Results as given in patent US12643899B2, “Antiviral agents, uses thereof and methods for their preparation” (The University of British Columbia, priority 2020, dated 2026).

Assays:
Experiment in all cases: microbe, parasite or virus in culture
Assay type in all cases: cell-based
[1] = system: SARS-CoV-2 Wuhan strain from VIDO (SB); settings: Severe acute respiratory syndrome coronavirus 2, Calu-3
[2] = system: SARS-CoV-2 England (VOC 202012/01)
[3] = system: SARS-CoV-2 South Africa (501Y.V2); settings: Severe acute respiratory syndrome coronavirus 2, Calu-3
SARS-CoV-2 Nigeria (484) = settings: Severe acute respiratory syndrome coronavirus 2, Calu-3

Structure (SMILES): COc1c2n(c3ccccc13)[C@]1(O)C(=O)N(C)C(=O)[C@]1(O)c1c-2[nH]c2ccc(Cl)cc12 [CA, (11S,15R)-7-chloro-11,15-dihydroxy-23-methoxy-13-methyl-3,13,16-triazahexacyclo[14.7.0.0^2,10.0^4,9.0^11,15.0^17,22]tricosa-1(23),2(10),4(9),5,7,17,19,21-octaene-12,14-dione]
- IC50 [1]: 57.7 nM
- IC50 ([2]; Severe acute respiratory syndrome coronavirus 2, Calu-3): 0.801 nM
- EC50 ([2]; Severe acute respiratory syndrome coronavirus 2, Calu-3, read-out: ED50): ~0.8 nM
- IC50 [3]: 12.2 nM
- IC50 (SARS-CoV-2 Nigeria (484)): 12.2 nM
